Assay results from patent publication US10660789B2, “1,4-dihydropyridine derivatives with HSP modulating activity” (Richter Gedeon NYRT., priority 2011, dated 2020).
Marks after values point to notes of the source that are not given here.

How the values were obtained:
[1] = system: other Hsps; assay: Other in vitro HSP modulating effects (Table 3); type: cell-based, mouse and human; parameters: key: +: co-inducing activity; −: silencing activity; 0: with the experimental methods applied no other HSP modulating effects could be identified
Procedure: (§1) The Hsp co-inducing effect of the compounds on stress response was tested on B16 mouse melanoma and SHSY5Y human neuroblastoma cell lines stably transfected with Hsp promoter probing plasmids. This kind of promoter probing, using the promoter region of a given gene conjugated with fluorescent protein is used as a best and fastest test system for finding drugs which modulate the activity of the gene followed by the given promoter (Wyshocka et al., Mol. Cel. Biochem. 215:153-156, 2000).
(§2) Reporter plasmids, containing the Hsp70 and/or Hsp25 promoter conjugated to either YFP or GFP (yellow or green fluorescent protein), were stably transfected into the cells and the expression of YFP or GFP was followed by flow cytometry. Cells were either kept at 37° C. or exposed to heat shock at 42° C. for 1 hour followed by a 16 hour recovery period at 37° C. in the presence or absence of different concentrations of the test compound. After recovery the expression of YFP or GFP which is in straight correlation with the promoter activity of Hsp70 or Hsp27 genes was followed by measuring the fluorescence intensity of the cells by flow cytometry. Fluorescence intensity is in straight correlation with the amount of fluorescent protein (GFP or YFP) produced under the control of hsp promoter. The mean fluorescence intensity of YFP or GFP produced is shown as “Hsp promoter activity”.
(§3) Cells were homogenously distributed on 6-well plates in 1×10^5 cells/well density. B16-pHsp25-GFP and B16-pHsp70-YFP melanoma cells were grown in RPMI-1640 medium supplemented with 10% Fetal bovine serum (FBS), penicillin (200 units/ml), streptomycin (200 μg/ml) and 2 mM L-Glutamine. For maintaining the SH-SY5Y-pHsp25-GFP and SH-SY5YpHsp70-YFP neuroblastoma cell lines Dulbecco's modified Eagle's medium (DMEM-F-12) containing 10% FBS, 2 mM L-Glutamine, penicillin (200 units/ml), streptomycin (200 μg/ml) and MEM non-essential amino acids were used. Before the treatments both cell lines were incubated at 37° C. in a saturated humidity atmosphere containing 95% air and 5% CO2. After 24 h incubation cells were pretreated with compounds of the invention in four different concentrations (usually in 3; 10; 20 and 50 μM) 30 min before the heat shock at 42° C. for 1 h and then incubated further at 37° C. for 16 h (recovery period). After this procedure cells were trypsinized and suspensed in 500 μl serum-free DMEM-F12 medium. The changes in cells' fluorescence were detected using BD FACSCalibur flow cytometer.
SY-SY5Y and B16 cells were extracted in NP-40 lysis buffer (PBS pH 7.4, 1% protease inhibitor coctail and 1% Triton X-100). The cell extracts were then constantly agitated at 4° C. for 2 h. The cell extracts were centrifuged at 12000×g for 30 min and supernatants were saved. After the protein concentration measurement 15 μg of total protein was separated by sodium dodecyl sulfate-polyacrylamide gel electrophoresis (SDS-PAGE) under reducing conditions according to the method of Laemmli. Proteins were blotted onto PVDF membrane. The blot was incubated overnight at 4° C. in the presence of mouse α-Hsp25, α-Hsp70, α-Hsp60 és α-Hsp90 monoclonal antibodies diluted in PBS. Then, the membrane was washed three times in PBS-0.05% Tween and incubated for 1 h in peroxidase-conjugated anti-mouse IgG antibody diluted 1:50000 in PBS containing 3% non-fat dry milk. The immune complexes were detected with chemo-luminescent substrate of peroxidase according to the supplier's instructions. Images taken from the membranes were analyzed using AlphaEase FC software.

[2] = system: B16 melanoma cells; assay: Experimental metastatic melanoma, B16 cells i.v. in C57Bl/6 mice; type: in vivo, mouse
Procedure: The anticancer activity was tested in C57Bl/6 mouse (B6), the best known syngeneic mouse model of experimental metastatic melanoma. C57Bl/6 mice injected with B16 melanoma cells subcutaneously or intramuscularly develop primary tumors that, in a part of the recipients, give rise to lung metastases. When the B16 cells are injected intravenously via the tail vein, a fraction of the tumor cells homes directly in the lung, where they develop into multiple independent tumor nodules termed “experimental metastases”. Although lung tumors are the most prominent, brain, liver and kidney tumors are also detectable in intravenously injected mice. Since the behavior of the tumor-bearing mice is quite uniform, the model is suitable for simultaneous testing of high numbers of drug candidates in a limited number of experimental animals.
The in vivo tumor experiments were performed with cultured B16 cells that were previously re-isolated from lung metastatic nodules, therefore their metastatic potential was kept optimal. The tumor cells liberated from the tumor mass by trypsin digestion were expanded in cell culture and stored in aliquots in liquid nitrogen, while the number of in vitro passages was kept to a minimum. In the experiments, B6 mice were injected with 100 000 B16 melanoma cells i.v. via the tail vein. The drug candidates were dissolved in physiological saline then they were administered i.p. in a volume of 100 ul. Daily treatment of tumor bearing mice started at day 7 after the tumor injection. The body weight of the mice was measured at day 1, 7, 14 and 21. The survival of the tumor bearing mice was recorded daily. All experiments were performed in accordance with national and European animal welfare guidelines. To prevent unnecessary suffering, moribund mice were euthanized.

[3] = system: Hsp70 promoter; assay: Hsp promoter probing, Hsp70 promoter-YFP reporter, flow cytometry (Table 3); type: cell-based, mouse and human; parameters: key: +: co-inducing activity; −: silencing activity; 0: with the experimental methods applied no other HSP modulating effects could be identified; conditions: heat shock 42° C. 1 h, 16 h recovery; B16 or SHSY5Y reporter cells, cell line per value not stated
Procedure: as §1
The Hsp encoding genes are transactivated through the binding of HSF to the heat shock element found on the DNA upstream of the Hsp genes, in the so called promoter region. In the absence of heat stress, the heat shock factors are present as monomers. Upon heat stress, however, the heat shock factors form trimers, which are the active components, able to bind to heat shock elements. Once HSF is bound to the heat shock element in the promoter of Hsp genes, the gene following the promoter region is transcriptionally active.
as §2, §3

[4] = system: Zucker obese rat; assay: Insulin resistance, Zucker obese rat; type: in vivo
Procedure: Insulin sensitizing activity of the compounds was tested in Zucker obese rat at three doses (10, 30 and 100 mg/kg), 6 weeks old Zucker obese (ZO) rats were adapted for a week before the administration of the compound. The animals were treated once a day for 5 days with compound Ex. 1 with 10, 30 and 100 mg/kg dose by stomach probe. The control group was treated with Klucel solution. The animals were kept in metabolic cage during the experiment, their food and drink consumption, the amount of urine and faeces was determined daily.
At the end of the treatment period the animals were fasted for 16 hours, the fasting plasma glucose level was determined. At the end the animals were sacrificed and different organs were taken for Hsp measurement.

[5] = model in which efficacy was shown

| melting point | SMILES | Other in vitro effects [1] | Hsp70 modulation [3] | also measured |
| --- | --- | --- | --- | --- |
| – | COC(=O)C1=C(C)N(C)C(CCN(C)C)=C(C(=O)OC)C1c1ccc(C(F)(F)F)cc1.Cl (centres unmarked) [Example 14, Dimethyl 2-(2-dimethylaminoethyl)-1,6-dimethyl-4-(4-trifluoromethylphenyl)-1,4-dihydropyridine-3,5-dicarboxylate hydrochloride] | 0 | – | Increase in life span ([2]; 10 mg/kg i.p. daily from day 7 to day 29): 18%; Mean survival time ([2]; 10 mg/kg i.p. daily from day 7 to day 29, control 25.25+/−4.13 days): 29.91 ± 3.78 days; drug-related mortality and weight loss ([2]; 10 mg/kg i.p. daily, tumor bearing mice): did not produce drug-related mortality or weight loss; In vivo efficacy [2, 5]: Cancer mono- |
| 184 to 185 °C | COC(=O)C1=C(C)N(C)C(C)=C(C(=O)OC)C1c1ccc(F)cc1 [Example 2, Dimethyl 1,2,6-trimethyl-4-(4-fluorophenyl)-1,4-dihydropyridine-3,5-dicarboxylate] | 0 | + | – |
| 176 to 181 °C | COC(=O)C1=C(C)N(C)C(CCN2CCc3cc(OC)c(OC)cc3C2)=C(C(=O)OC)C1c1ccc(C(F)(F)F)cc1.Cl (centres unmarked) [Example 41, Dimethyl 2-[2-(6,7-dimethoxy-1,2,3,4-tetrahydroisoquinolin-2-yl)-ethyl]-1,6-dimethyl-4-(4-trifluoromethylphenyl)-1,4-dihydropyridine-3,5-dicarboxylate hydrochloride] | 0 | + | – |
| 159 to 160 °C | COC(=O)C1=C(C)N(C)C(C)=C(C(=O)OC)C1c1ccc(C(F)(F)F)cc1 [Example 1, Dimethyl 1,2,6-trimethyl-4-(4-trifluoromethylphenyl)-1,4-dihydropyridine-3,5-dicarboxylate] | 0**** | +* | fasting plasma glucose level ([4]; 10, 30 and 100 mg/kg once a day for 5 days by stomach probe, 16 h fasted, FIG. 5A): improved fasting plasma glucose level; Hsp70 amount in brown adipose tissue ([4]; 10, 30 and 100 mg/kg once a day for 5 days, Western blot, FIG. 5B): elevated Hsp70 amount in brown adipose tissue; In vivo efficacy [4, 5]: Insulin resistance |
| 146 to 149 °C | CCOC(=O)C1=C(C)N(C)C(C)=C(C(=O)OC)C1c1ccc(C(F)(F)F)cc1 (centres unmarked) [Example 32] | 0 | + | – |
| 167 to 168 °C | COC(=O)C1=C(C)N(C)C(C)=C(C(=O)OC)C1c1cc(F)cc(F)c1 [Example 24, Dimethyl 4-(3,5-difluorophenyl)-1,2,6-trimethyl-1,4-dihydropyridine-3,5-dicarboxylate] | 0 | + | – |
| 94 to 96 °C | CCOC(=O)C1=CN(C)C=C(C(=O)OCC)C1c1ccc(C(F)(F)F)cc1 [Example 37, Diethyl 1-methyl-4-(4-trifluoromethylphenyl)-1,4-dihydropyridine-3,5-dicarboxylate] | 0 | + | – |
| 142 to 143 °C | COC(=O)C1=C(C)N(C)C(C)=C(C(=O)OC)C1c1ccco1 [Example 44, Dimethyl 4-(furan-2-yl-1,2,6-trimethyl-1,4-dihydropyridine-3,5-dicarboxylate] | 0 | + | – |
| 129 to 132 °C | COC(=O)C1=C(C)N(C)C(C#N)=C(C(=O)OC)C1c1ccc(C(F)(F)F)cc1 (centres unmarked) [Example 47, Dimethyl 2-cyano-1,6-dimethyl-4-(4-trifluoromethylphenyl)-1,4-dihydropyridine-3,5-dicarboxylate] | 0 | + | – |
| 201 to 202 °C | COC(=O)C1=C(C)N(C)C(C)=C(C(=O)OC)C1c1ccc(-n2ccnc2)cc1 [Example 10, Dimethyl 1,2,6-trimethyl-4-(4-(1-imidazoly)lphenyl)-1,4-dihydropyridine-3,5-dicarboxylate] | 0 | + | – |
| 186 to 188 °C | COC(=O)C1=C(C)N(C)C(CCN2CCc3ccccc3C2)=C(C(=O)OC)C1c1ccc(C(F)(F)F)cc1.O=C(O)/C=C/C(=O)O (centres unmarked) [Example 40, Dimethyl 2-[2-(1,2,3,4-tetrahidroisoquinolin-2-yl)-ethyl]-1,6-dimethyl-4-(4-trifluoromethyl-phenyl)-1,4-dihydropyridine-3,5-dicarboxylate fumarate] | 0 | + | – |
| 187 to 189 °C | COC(=O)C1=C(C)N(C)C(C)=C(C(=O)OC)C1c1ccsc1 [Example 45, Dimethyl 1,2,6-Trimethyl-4-(thiophen-3-yl)-1,4-dihydropyridine-3,5-dicarboxylate] | 0 | + | – |
| 201 to 203 °C | COC(=O)C1=C(C)N(C)C(C)=C(C(=O)OC)C1c1ccccc1 [Example 3, Dimethyl 1,2,6-trimethyl-4-phenyl-1,4-dihydropyridine-3,5-dicarboxylate] | 0 | + | – |
